Paper PMC8512812, “Clerodane Diterpenoids from an Edible Plant Justicia insularis: Discovery, Cytotoxicity, and Apoptosis Induction in Human Ovarian Cancer Cells” (Molecules, 2021)
Where two headings read alike, the source gives them in different places.

Tests used:
Hela cells = system: Hela cells; design: method as in PMID 32213364; details: from the leaves of Casearia kurzii; read-out: IC50 against Hela cells; cited from earlier work
OVCAR-4 cells = assay: Sulforhodamine B (SRB) cell growth inhibitory assay; type: cell-based, human
Description: (§1) The human ovarian cancer cell lines and normal human ovarian surface epithelial (HOE) cells were used in this study. Ovarian cancer cell lines (OVCAR-4 and OVCAR-8) were products of American tissue culture collection (ATCC). The HOE cells were purchased from Applied Biological Materials (ABM) Inc. (Vancouver, BC, Canada). The Rosewell Park Memorial Institute (RPMI 1640, Lonza) medium was used in the culturing of OVCAR-4, OVCAR-8, and HOE cells. The medium was supplemented with 2 mM glutamine, 10% foetal bovine serum (FBS), and 50 µg/mL penicillin streptomycin. These cells were incubated in a standard humidified incubator) at 37 °C, 5% carbon dioxide (CO2) conditions.
(§2) Sulforhodamine B (SRB) assay was used to determine the inhibition of cell proliferation by the studied compounds and plant extracts. Plant extracts/fractions (100 mg/mL) and pure compounds (20 mM) were prepared in DMSO. The 0.2% DMSO in growth media was added to the cells as vehicle-treated cells (negative control) while carboplatin was used as positive control. In the SRB assay, OVCAR-4, OVCAR-8, and HOE cells were seeded in 80 µL growth medium per each well in 96 well plates. OVCAR-4 and HOE were seeded at a density of 5000 cells per well while OVCAR-8 was seeded at a density of 2000 cells per well. The seeded plates were incubated for 24 h, after which 20 μL of plant extracts and natural compounds 1000 µg/mL and 200 µM (and their serial two-fold dilutions), respectively, were added at the indicated concentrations. The cell cultures were incubated at 37 °C under 5% CO2 for 72 h in a humidified atmosphere.
(§3) After 72 h, the medium was decanted, and the cells fixed with 0.1 mL of 10% TCA on ice for 30 min before drying. The cells were stained with 0.4% SRB, washed with 1% acetic acid three times and dried. Then, 0.1 mL of Tris-base (10 mM) was added to the plates to solubilise the protein-bound SRB dye. The absorbance at 570 nm was measured using a spectroscopic plate reader (Multi-mode microplate reader BioTEK Synergy 2, Winooski, VT, USA). The data were analysed by non-linear regression to fit a 4-parameter sigmoidal dose–response curve to determine IC50 values using GraphPad PRISM 6.0 software, Inc. (San Diego, CA, USA).
(§4) The IC50s were obtained from at least three repeated experiments. The mean IC50 was calculated, and the standard error of mean (SEM) was determined. Furthermore, a one way analysis of variance (ANOVA) and student t test were used to test if the difference in the mean of control and treatments and mean of treatment at different concentration were significant. A post hoc Dunnett test was used to determine which of the treatments was significant to the control while a Tukey test was used to determine which of the concentrations of a particular treatment were significant using GraphPad prism 6.

OVCAR-8 cells [1] = assay: as above; type: cell-based, human; details: for SI against OVCAR-8: ratio of IC50 against HOE cells to IC50 against OVCAR-8
Description: as §1, §2, §3, §4

[2] = system: HOE cells (normal human ovarian surface epithelial); assay: as above; type: cell-based; details: for IC50: SRB, 72 h; for cytotoxic activity against HOE cells: compared with OVCAR-4 and OVCAR-8
Description: as §1, §2, §3, §4

[3] = system: OVCAR-4 and OVCAR-8 cells; assay: SRB cell growth assay, result stated jointly for both cancer lines; type: cell-based, human; details: span over the two cell lines, read-out: IC50 against OVCAR-4 and OVCAR-8 cells
Description: as §1, §2, §3, §4

[4] = system: caspase 3/7 in OVCAR-4 cells; assay: Caspase-Glo 3/7 activity assay; type: cell-based, human; details: 10, 20 and/or 30 μM, 48 h, vs control, one-way ANOVA
Description: (§5) Caspase 3/7 activities was measured using assay kits caspase-Glo 3/7 (Promega Corp., Madison, WI, USA) on a 96-well microplate. Briefly, the cells (OVCAR-4 and OVCAR-8) were seeded in 96 well plates at a cell density of 5000 cells/well in 80 μL growth media and exposed to 10, 20 and/or 30 μM of the natural compounds after 24 h incubation. After 48 h exposure to compound treatments, 25 μL of Caspase 3/7 Glo-reagent was added, and the cells were incubated in the dark at room temperature for 30 min on a gentle rocker. The luminescence was measured at […] by a BioTEK Synergy microplate reader (USA). A similar procedure was followed for caspase 8 and caspase 9 activity.

[5] = system: caspase 3/7 in OVCAR-8 cells; assay: Caspase-Glo 3/7 activity assay; type: cell-based, human; details: 10, 20 and/or 30 μM, 48 h, vs control, one-way ANOVA
Description: as §5

[6] = system: caspase 8 in OVCAR-8 cells; assay: Caspase-Glo 8 activity assay; type: cell-based, human
Description: as §5

[7] = system: caspase 9 in OVCAR-8 cells; assay: Caspase-Glo 9 activity assay; type: cell-based, human
Description: as §5

OVCAR-8 cells [8] = assay: Annexin V-FITC / propidium iodide flow cytometry; type: cell-based, human; details: 5, 10, and 20 µM, 48 h treatment
Description: The in vitro method of fluorescence-activated cell sorting (FACS) by Annexin V and propidium iodide (PI) staining was used to detect the change of cell population as reported. OVCAR-8 cells were seeded in 12 well plates at a density of 2 × 10^5 cells per well in 1 mL of growth media and incubated for 24 h before treatment with the tested compound and positive control. After treatment for 48 h, media were decanted into 15 mL tubes, and cell pellets were collected into the same tubes by trypsinisation, the cells were centrifuged at 150× g for 3 min and re-suspended into 1 mL growth media, which was transferred into sterile 2 mL Eppendorf tube, centrifuged at 300× g for 5 min at 4 °C. The media were aspirated, and the pellet was washed in cold PBS. The cells were centrifuged under the same conditions and the supernatant aspirated. Cells were washed in 500 µL annexin-V binding buffer and centrifuged at 300× g for 10 min, annexin-V binding buffer was aspirated, and the cell pellet was treated with 10 µL of annexin V-FITC in 100 µL of binding buffer. The cells were thoroughly mixed and incubated in the dark at room temperature for 15 min. After incubation, cells were washed in binding buffer and centrifuged at 300× g for 10 min. The buffer was aspirated, and cells were suspended in 500 µL binding buffer and subsequently 5 µL of PI was added for flow cytometry analysis.

[9] = Thermal stability (GC-MS conditions; heating followed by HPLC); type: physicochemical
Description: Briefly, 1.0–2.0 mg of the bioactive fractions and isolated compounds of J. insularis were dissolved in 200 μL of ethyl acetate and sonicated at <40 °C for 5 min. 1–2 μL of the solution was subsequently injected into gas chromatography mass spectrometry (GC-MS) system consisting of an Agilent 7890 coupled to Agilent MS model 5975C MSD (Agilent Technologies, Cold Spring, NY, USA). The gas chromatography started at 60 °C for 2 min and increased to 300 °C at the rate of 10 °C/min, which was held at 300 °C for 4 min at a constant helium pressure (10 psi). The mass spectra data were acquired in the scan mode in m/z range 40–1000.
The molecular formula of 1 was determined as C20H30O3 based on the observed molar mass of compound 1 (found, 318.2123 Da) by LC-HR-MS (Figure S4). […] The other observed compounds, 1a and 1b (Figure S5), were determined to be the thermal degradation products of compound 1 due to the presence of a γ–hydroxy unsaturated 5-membered lactone moiety (Figure 1) under high temperature conditions (60 °C–300 °C) for 30 min of GC-MS. […] Furthermore, the percentage of compound 1 in organic extracts was determined to be 34%. Thus, the composition of compound 1 in the plant material is 0.7% (dry weight), a very abundant secondary metabolite in the leave of J. insularis.

[10] = Homo sapiens, OVCAR-4, 72 h, mean ± SEM, read-out: growth inhibitory activity, IC50, OVCAR-4
[11] = Homo sapiens, OVCAR-4, 72 h, same IC50 given in μg/mL, read-out: growth inhibitory activity, IC50, OVCAR-4, in parentheses (converted)
[12] = Homo sapiens, OVCAR-8, SRB, 72 h, mean ± SEM, read-out: growth inhibitory activity, IC50, OVCAR-8
[13] = Homo sapiens, OVCAR-8, SRB, 72 h, same IC50 given in μg/mL, read-out: growth inhibitory activity, IC50, OVCAR-8, in parentheses (converted)
[14] = Homo sapiens, mean ± SEM, read-out: growth inhibitory activity, IC50, HOE
[15] = Homo sapiens, same IC50 given in μg/mL, read-out: growth inhibitory activity, IC50, HOE, in parentheses (converted)

Row | Compound | IC50 (OVCAR-4 cells; [10]) [µM] | IC50 (OVCAR-4 cells; [11]) [µg/mL] | IC50 (OVCAR-8 cells [1]; [12]) [µM] | IC50 (OVCAR-8 cells [1]; [13]) [µg/mL] | SI against OVCAR-8 (OVCAR-8 cells [1]) | IC50 [2, 14] [µM] | IC50 [2, 15] [µg/mL] | cytotoxic activity against HOE cells [2] | IC50 ([3]; Homo sapiens) [µM] | IC50 [3] [µM] | caspase 3/7 activities [4] | caspase 3/7 activities [5] | other results
1 | Kurzipene B |  |  |  |  |  |  |  |  |  |  |  |  | IC50 (Hela cells): 5.3 µM
2 | CC1=CCC[C@@H]2[C@@](C)(CCC3=CC(=O)OC3O)[C@H](C)CC[C@@]12C (mixture of isomers) [Compound 1, 16(α/β)-hydroxy-cleroda-3,13(14)Z-dien-15,16-olide] | 5.7 ± 0.3 | 1.8 | 4.4 ± 0.2 | 1.4 | 3 | 12.1 ± 0.1 | 3.9 | less cytotoxic activity | 4 to 6 | < 6 | significantly increased | significantly increased | IC50 (OVCAR-8 cells [1]; Homo sapiens, OVCAR-8, Figure S1 scheme, read-out: IC50 in OVCAR-8 (Figure S1)): 1.42 µg/mL; caspase 8 activity [6]: increased; caspase 9 activity [7]: increased; percentage of early and late apoptosis (OVCAR-8 cells [8]): concentration-dependent and significant increase; thermal stability, HPLC after heating ([9]; 200 °C for 0.5 h followed by HPLC analysis): formation of new products; thermal stability ([9]; at a high temperature): thermally unstable
3 | CC1=CCC[C@@H]2[C@@](C)(CC/C(C=O)=C\C(=O)O)[C@H](C)CC[C@@]12C [Compound 2, 16-oxo-cleroda-3,13(14)E-dien-15-oic acid] | 16.6 ± 2.8 | 5.3 | 11.8 ± 0.5 | 3.8 | 2 | 22.8 ± 0.7 | 7.3 | less cytotoxic activity | 12 to 17 |  | significantly increased | significantly increased | 
4 | N.N.O=C([O-])C1(C(=O)[O-])CCC1.[Pt+2] [Carboplatin, carboplatin, reference compound] |  |  |  |  | 1.6 |  |  |  |  | 8 to 18 |  |  | IC50 (OVCAR-4 cells; 72 h, mean ± SEM, read-out: growth inhibitory activity, IC50, OVCAR-4): 17.6 ± 4.6 µM; IC50 (OVCAR-8 cells [1]; SRB, 72 h, mean ± SEM, read-out: growth inhibitory activity, IC50, OVCAR-8): 8.2 ± 2.2 µM; IC50 ([2]; mean ± SEM, read-out: growth inhibitory activity, IC50, HOE): 13 ± 3.7 µM
